Reference: ChEMBL document CHEMBL3351802, “Rupestonic acids B-G, NO inhibitory sesquiterpenoids from Artemisia rupestris” (Bioorg Med Chem Lett, 2014)

Key:
[1] = system: BV-2; assay: Inhibition of LPS-stimulated NO production in […] cells after 24 hrs by Griess assay; format: functional, cell-based; conditions: Mus musculus, BV-2, 24 h
[2] = Cytotoxicity against LPS-stimulated […] cells assessed as cell viability at 40 uM by MTT assay; format: cell-based, BV-2; conditions: read-out: Activity

IC50 [1] | SMILES | viability at 40 µM [2]
28.9 µM | C=C(C(=O)O)[C@@H]1CC[C@H](C)[C@@]2(O)CC(=O)C(C)=C2C1 | 83.4%
8.9 µM | CC1=C2C[C@H](C(=O)O)CC[C@H](C)[C@@H]2CC1=O | 77.6%
2.6 µM | C=C(C(=O)O)[C@@H]1CC[C@H](C)[C@@H]2CC[C@](C)(O)[C@@]2(O)C1 | 78.8%
20.4 µM | C=C(C(=O)O)[C@@H]1CC[C@H](C)[C@H]2C(=O)C=C(C)[C@]2(O)C1 | 76.1%

The next lines start with the compound.

SMILES | IC50 [1] | viability at 40 µM [2]
C=C(C(=O)O)[C@@H]1CC[C@H](C)[C@H](CCC(C)=O)C(=O)C1 | 2.2 µM | 76.6%
O=c1c(O)c(-c2ccc(O)c(O)c2)oc2cc(O)cc(O)c12 [QUERCETIN] | 4.3 µM | 97%
C=C(C(=O)O)[C@@H]1CC[C@H](C)C2=C(C1)[C@](C)(O)CC2=O | 24.7 µM | 77%
